System: A-375 cells
Assay: Cytotoxicity of conjugate versus uncoupled drug, serial dilutions
Type: cell-based
Conditions: drug alone versus conjugate, Figure 6

SMILES: COc1cccc2c1C(=O)c1c(O)c3c(c(O)c1C2=O)C[C@@](O)(C(=O)CO)C[C@@H]3O[C@H]1C[C@H](N2CCOCC2)[C@H](O)[C@H](C)O1 [MRA, morpholino doxorubicin]
- cytotoxicity: Identical cytoxicity

Reference: patent publication EP0476408A1, “Chemical conjugation of morpholino anthracyclines to antibodies” (RESEARCH CORPORATION TECHNOLOGIES, INC., priority 1990, dated 1992)
